Assay [1] has as its system Heliothis peltigera female moths. Kind of assay: Topical application: inhibition of sex pheromone biosynthesis (cuticular bioavailability). The format is in vivo. The conditions noted are these: for lowering of pheromone content compared to the solvent / inhibition of pheromone biosynthesis: 10 pmol; for comparison of activity in IIS vs. tap water: topical application. The procedure: FIG. 2. is a graph showing the effect of topically applied peptides on the inhibition of sex pheromone biosynthesis in Heliothis peltigera female moths. • The tested peptides are those listed in Table 1 (1-10, respectively). • Peptides were tested at a concentration of 10 pmol and were applied in IIS (0.5% ethanol, 0.05% Tween-80 in DDW), and DDW for 1 h. • Sex pheromone content is expressed as a percentage of the endogenous pheromone content obtained using control untreated moths (defined as 100%). Statistical analysis compared pheromone content in the presence of each peptide with that obtained with the corresponding solvents themselves (indicated by an asterisk).
FIG. 3A and FIG. 3B are graphs showing the dose response of Ac-A-dPhe-4 (3A) or Ac-A-dPhe-6 (3B) on inhibition of sex pheromone biosynthesis in Heliothis peltigera female moths. Peptides were applied in DDW for 1 h. • Sex pheromone content is expressed as a percentage of the endogenous pheromone content obtained using control untreated moths (defined as 100%). Statistical analysis compared pheromone content in the presence of each peptide at the indicated concentrations with that obtained with the solvent itself (indicated by an asterisk). A similar statistical analysis was also made against the pheromone content of untreated moths (indicated by #). […] Differences in the potency of the peptides at the indicated concentrations are depicted by letters.
FIG. 4. is a graph showing the time response of 1 nmol Ac-A-dPhe-4 and Ac-A-dPhe-6 (applied in DDW) on inhibition of sex pheromone biosynthesis in Heliothis peltigera female moths. • Sex pheromone content is expressed as a percentage of the endogenous pheromone content obtained using control untreated moths (defined as 100%). Statistical analysis compared pheromone content in the presence of each peptide at the indicated times with that obtained with the solvent itself at the same time point (indicated by an asterisk). […] Differences in the potency of the peptides at the indicated time points are depicted by letters. (Ac-A-dPhe-4: small letters; Ac-A-dPhe-6: capital letters).
FIG. 5A to FIG. 5C are graphs showing the effect of topically applied peptides on inhibition of sex pheromone biosynthesis in Heliothis peltigera female moths. • The tested peptides are those listed in Table 1 (1-6, respectively). Peptides were tested at a concentration of 1000 pmol (5A), 300 pmol (5B) or 100 pmol (5C) and were applied in DDW, DMSO and IIS for 7h. • Sex pheromone content is expressed as a percentage of the endogenous pheromone content obtained using control untreated moths (defined as 100%). Statistical analysis compared pheromone content in the presence of each peptide in a given solvent (DDW, DMSO or ITS) with that obtained with the solvents themselves (indicated by an asterisk).
a) Topical Application (TA)
This assay is used to determine cuticular penetrability.
The tested peptides are applied onto the insect (e.g. moths) at scotophase (when pheromone is naturally synthesized) in a given solvent for the indicated times.
Antagonistic activity was tested at a concentration of 10 pmol and the peptides were topically applied in two solvents: DDW and IIS (FIG. 2). […] Ac-A-dPhe-6 was the second best in IIS inhibiting pheromone biosynthesis by 74%.
Only minor differences in activity is observed as a function of a dose (with the exception of Ac-A-dPhe-4 at 1000 pmol, which inhibited pheromone production to a lesser extent of about 50%).
All experiments were carried out at the scotophase and the peptides were applied one hour before pheromone glands were excised (+5) and tested for pheromone content (at the 6th hour of the scotophase when the pheromone content is at its highest level). The high inhibition obtained under the tested conditions, indicates the extremely fast and high penetrability and bioactivity of the peptides of the invention. […]

For assay [2], the system named is Spodoptera littoralis larvae. Nature of the assay: Melanotropic inhibitory activity: injection with a stimulator (PBAN, PT, LPK, DH). As to conditions: for Melanotropic inhibitory activity, stimulator DH: injected with DH (diapause hormone); for Melanotropic inhibitory activity, stimulator DH / Melanotropic inhibitory activity, stimulator LPK / Melanotropic inhibitory activity, stimulator PBAN / Melanotropic inhibitory activity, stimulator PT: 100 pm; for Melanotropic inhibitory activity, stimulator LPK: injected with LPK (leucopyrokinin); for Melanotropic inhibitory activity, stimulator PBAN: injected with PBAN, inhibition = 100 minus % melanization with vs without peptide; for Melanotropic inhibitory activity, stimulator PT: injected with PT (pheromonotropin); for inhibition of melanin synthesis stimulated by LPK: stimulator LPK; for inhibition of melanin synthesis stimulated by PBAN: stimulator PBAN; for inhibition of melanin synthesis stimulated by PT: stimulator PT. The format is in vivo. The source says:
FIG. 12. is a graph showing the melanotropic inhibitory activity of the peptides of the invention against different stimulators of the PK/PBAN family: PBAN, PT (pheromonotropin), LPK (leucopyrokinin), DH (diapause hormone). • Degree of cuticular melanization is expressed as a percentage of the melanization obtained by injection the elicitor itself (PBAN, PT, LPK or DH) in the absence of the tested peptide (not shown). Statistical analysis compared the degree of melanization in the presence and absence of the tested peptide with any given elicitor. An asterisk indicates a significant difference between the degree of melanization obtained in the presence of the peptide. This assay is used to test the agonistic properties of the tested peptides (in adult females), and to determine the peptides melanotropic agonistic or antagonistic properties (in larvae). It was also used to determine the activity of peptides that were stored outdoors for different amounts of time. The peptides are injected into either adult female insects (e.g. moths) at photophase (when pheromone is not synthesized naturally, but the insect has the ability to produce pheromone upon stimulation with a agonist) or into 5th instar larvae. Agonistic properties were tested by injection of the peptides alone; antagonistic properties were determined by injection of the peptide together with a stimulator. The ability of the peptides to inhibit cuticular melanin synthesis was tested in Spodoptera littoralis larvae. Inhibitory activity was tested by injecting the peptides to Spodoptera littoralis larvae together with a given stimulator: PBAN, PT, LPK and DH. Inhibition is expressed as 100 minus the ratio in percentage (%) between the extents of cuticular melanization obtain in the presence and absence of the tested peptide (Table 2).

Square brackets hold non-standard residues; d marks the D form. Ends that are not written are not given here. * marks the point of attachment. Cyclohexyl = cyclohexyl group capping the N-terminus, C1CCC(*)CC1; Fmoc = O=C(OCC1c2ccccc2-c2ccccc21)*

In the case of “Arg-Tyr-Phe-Ser-Pro-[dPhe]-Leu-amide (RYFSP[dF]L-NH2; N-terminus assumed; SMILES CC(C)C[C@H](NC(=O)[C@@H](Cc1ccccc1)NC(=O)[C@@H]1CCCN1C(=O)[C@H](CO)NC(=O)[C@H](Cc1ccccc1)NC(=O)[C@H](Cc1ccc(O)cc1)NC(=O)[C@@H](N)CCCNC(=N)N)C(N)=O) [dPhe-6]”, the “lowering of pheromone content compared to the solvent” value in assay [1] (topical, in DDW, 1 h) is on record as “failed to lower pheromone content”. For the same substance, in assay [2], the “Melanotropic inhibitory activity, stimulator DH” value is 15%; the “Melanotropic inhibitory activity, stimulator LPK” value is on record as 78%; the “Melanotropic inhibitory activity, stimulator PBAN” value is 49%; the “Melanotropic inhibitory activity, stimulator PT” value was 74%.
As to “Acetyl-Ala-[dPhe]-Pro-Arg-Leu-amide (Ac-A[dF]PRL-NH2; SMILES CC(=O)N[C@@H](C)C(=O)N[C@H](Cc1ccccc1)C(=O)N1CCC[C@H]1C(=O)N[C@@H](CCCNC(=N)N)C(=O)N[C@@H](CC(C)C)C(N)=O) [Ac-A-dPhe-4]”, the “comparison of activity in IIS vs. tap water” value in assay [1] is “No differences”. Further, the “inhibition of pheromone production” value in assay [1] (topical in DDW, 1 h, 1000 pmol) was “about 50%”. In addition, the “inhibition of pheromone biosynthesis” value in assay [1] (topical, in DDW, 1 h) was 83%. Besides, the “activity as a function of the dose” value in assay [1] (topical, 7 h, in IIS and DMSO, 100, 300, 1000 pmol) was “less active at 100 pmol compared to 300 and 1000 pmol”. Further, in assay [2], the “Melanotropic inhibitory activity, stimulator DH” value was found to be 6%; the “Melanotropic inhibitory activity, stimulator LPK” value came out at 31%; the “Melanotropic inhibitory activity, stimulator PBAN” value was 54%; the “Melanotropic inhibitory activity, stimulator PT” value is listed as 100%. Further, in assay [2], the “inhibition of melanin synthesis stimulated by LPK” value (shortened to “inhibition … by LPK”) is given as “inhibited LPK”, the “inhibition of melanin synthesis stimulated by PBAN” value (from here on “inhibition … by PBAN”) was “inhibited PBAN” and the “inhibition of melanin synthesis stimulated by PT” value (from here on “inhibition … by PT”) is on record as “inhibited PT”.
As for “Acetyl-Arg-Tyr-Phe-Ser-Pro-[dPhe]-Leu-amide (Ac-RYFSP[dF]L-NH2; SMILES CC(=O)N[C@@H](CCCNC(=N)N)C(=O)N[C@@H](Cc1ccc(O)cc1)C(=O)N[C@@H](Cc1ccccc1)C(=O)N[C@@H](CO)C(=O)N1CCC[C@H]1C(=O)N[C@H](Cc1ccccc1)C(=O)N[C@@H](CC(C)C)C(N)=O) [Ac-dPhe-6]”, in assay [2], the “Melanotropic inhibitory activity, stimulator DH” value is 35%; the “Melanotropic inhibitory activity, stimulator LPK” value was determined as 8%; the “Melanotropic inhibitory activity, stimulator PBAN” value was 59%; the “Melanotropic inhibitory activity, stimulator PT” value is recorded as 100%.
For “Acetyl-Arg-Tyr-Phe-[dPhe]-Pro-Arg-Leu-amide (Ac-RYF[dF]PRL-NH2; SMILES CC(=O)N[C@@H](CCCNC(=N)N)C(=O)N[C@@H](Cc1ccc(O)cc1)C(=O)N[C@@H](Cc1ccccc1)C(=O)N[C@H](Cc1ccccc1)C(=O)N1CCC[C@H]1C(=O)N[C@@H](CCCNC(=N)N)C(=O)N[C@@H](CC(C)C)C(N)=O) [Ac-dPhe-4]”, in assay [2], the “Melanotropic inhibitory activity, stimulator DH” value is on record as 22%; the “Melanotropic inhibitory activity, stimulator LPK” value was 51%; the “Melanotropic inhibitory activity, stimulator PBAN” value was 70%; the “Melanotropic inhibitory activity, stimulator PT” value was 100%. Besides, in assay [2], the “inhibition … by PBAN” value is listed as “inhibited PBAN” and the “inhibition … by PT” value is reported as “inhibited PT”.
In the case of “Fmoc-Ala-Ser-Pro-[dPhe]-Leu-amide (Fmoc-ASP[dF]L-NH2; SMILES CC(C)C[C@H](NC(=O)[C@@H](Cc1ccccc1)NC(=O)[C@@H]1CCCN1C(=O)[C@H](CO)NC(=O)[C@H](C)NC(=O)OCC1c2ccccc2-c2ccccc21)C(N)=O) [Fmoc-A-dPhe-6]”, in assay [2], the “Melanotropic inhibitory activity, stimulator DH” value amounted to 35%; the “Melanotropic inhibitory activity, stimulator LPK” value came to 100%; the “Melanotropic inhibitory activity, stimulator PBAN” value is reported as 67%; the “Melanotropic inhibitory activity, stimulator PT” value was 100%.
With “Acetyl-Ala-Ser-Pro-[dPhe]-Leu-amide (Ac-ASP[dF]L-NH2; SMILES CC(=O)N[C@@H](C)C(=O)N[C@@H](CO)C(=O)N1CCC[C@H]1C(=O)N[C@H](Cc1ccccc1)C(=O)N[C@@H](CC(C)C)C(N)=O) [Ac-A-dPhe-6]”, the “comparison of activity in IIS vs. tap water” value in assay [1] is “No differences”. Besides, the “inhibition of pheromone biosynthesis” value in assay [1] (topical, in IIS, 1 h) was determined as 74%. The “potency as a function of application time” value in assay [1] (topical, 1 nmol in DDW, 1, 3 and 7 h) is reported as “did not differ”. Moreover, in assay [2], the “Melanotropic inhibitory activity, stimulator DH” value is recorded as 29%; the “Melanotropic inhibitory activity, stimulator LPK” value amounted to 0%; the “Melanotropic inhibitory activity, stimulator PBAN” value amounted to 63%; the “Melanotropic inhibitory activity, stimulator PT” value was found to be 100%. Further, in assay [2], the “inhibition … by LPK” value was “inhibited LPK”, the “inhibition … by PBAN” value is “inhibited PBAN” and the “inhibition … by PT” value is reported as “inhibited PT”.
For the substance “Cyclohexyl-Ala-[dPhe]-Pro-Arg-Leu-amide (Cyclohexyl-A[dF]PRL-NH2; SMILES CC(C)C[C@H](NC(=O)[C@H](CCCNC(=N)N)NC(=O)[C@@H]1CCCN1C(=O)[C@@H](Cc1ccccc1)NC(=O)[C@H](C)NC1CCCCC1)C(N)=O) [Cyc-A-dPhe-4]”, the “comparison of activity in IIS vs. tap water” value in assay [1] was “No differences”. Also, in assay [1] (topical, in IIS, 1 h), the “lowering of pheromone content compared to the solvent” value is “failed to lower pheromone content”. For the same substance, in assay [2], the “Melanotropic inhibitory activity, stimulator DH” value came out at 15%; the “Melanotropic inhibitory activity, stimulator LPK” value amounted to 100%; the “Melanotropic inhibitory activity, stimulator PBAN” value is 7%; the “Melanotropic inhibitory activity, stimulator PT” value is listed as 6%. Also, the “inhibition … by LPK” value in assay [2] was “inhibited LPK”.
Take “Fmoc-Ala-[dPhe]-Pro-Arg-Leu-amide (Fmoc-A[dF]PRL-NH2; SMILES CC(C)C[C@H](NC(=O)[C@H](CCCNC(=N)N)NC(=O)[C@@H]1CCCN1C(=O)[C@@H](Cc1ccccc1)NC(=O)[C@H](C)NC(=O)OCC1c2ccccc2-c2ccccc21)C(N)=O) [Fmoc-A-dPhe-4]”: the “comparison of activity in IIS vs. tap water” value in assay [1] was “No differences”. Further, in assay [2], the “Melanotropic inhibitory activity, stimulator DH” value is given as 28%; the “Melanotropic inhibitory activity, stimulator LPK” value was found to be 100%; the “Melanotropic inhibitory activity, stimulator PBAN” value came to 68%; the “Melanotropic inhibitory activity, stimulator PT” value turned out to be 100%.
As to “Cyclohexyl-Ala-Ser-Pro-[dPhe]-Leu-amide (Cyclohexyl-ASP[dF]L-NH2; SMILES CC(C)C[C@H](NC(=O)[C@@H](Cc1ccccc1)NC(=O)[C@@H]1CCCN1C(=O)[C@H](CO)NC(=O)[C@H](C)NC1CCCCC1)C(N)=O) [Cyc-A-dPhe-6]”, in assay [2], the “Melanotropic inhibitory activity, stimulator DH” value is listed as 15%; the “Melanotropic inhibitory activity, stimulator LPK” value came out at 100%; the “Melanotropic inhibitory activity, stimulator PBAN” value stood at 67%; the “Melanotropic inhibitory activity, stimulator PT” value is given as 26%. Besides, in assay [2], the “inhibition … by LPK” value was “inhibited LPK” and the “inhibition … by PBAN” value was “inhibited PBAN”.
